The text below walks through data of patent publication US20240261243A1, “NITRIC OXIDE DONORS, COMPOSITIONS, AND METHODS OF USE” (priority 2020, published 2024).

Values joined by “and” are separate entries in the source; they are usually repeats but may differ in a detail not shown here. Equal values may be shown once.

Series [1] deals with P. aeruginosa biofilms. The experiment in a line: Biofilm eradication (MBEC) on peg lid.
Series [2] has as its system P. aeruginosa strain PAK.
Method: All test articles are prepared at 4×→diluted 1:1 when other TA is added (2×), and diluted 1:1 again to 1× when bacteria are added
Experimental Design: The MIC of BIOC76 and Gallium nitrate individually, then set up a checkerboard assay testing 49 combinations of BIOC76 and Gallium nitrate concentrations against 10^6 CFU/ml P. aeruginosa strain PAK. Plates were incubated at 37° C. for 18-24 h, and growth was assessed visually.
Series [3] concerns the target angiotensin-converting enzyme 2 (ACE2) (Homo sapiens, UniProt Q9BYF1). The following applies: ACE2 inhibitor from foodstuffs; cited from earlier work.
Series [4] in a line: NO release half-life of diazeniumdiolate NO donors in aqueous media at pH 7.4. The class given is physicochemical.
From the text: The rate of nitric oxide release from diazeniumdiolates can be controlled using a variety of structural features.
In series [5] the test system is P. aeruginosa strains. The experiment in a line: MIC/MBC of BIOC76 and gallium citrate alone against 21 strains. The class given is cell-based, Pseudomonas aeruginosa. The following applies: for MBC Rep 1 / MIC Rep 1: alone. The text has this:
Determined the MIC of each test article individually against the strains being tested using the CLSI MIC/MBC method.
In this study, we established the MIC/MiBC's of BIOC76 and gallium citrate alone against each of 21 P. aeruginosa strains. […] The activity of both compounds is also strain-dependent. The results are as follows (the species for each strain is Pseudomonas aeruginosa: […]

Series [6] has as its system P. aeruginosa (PAK). Description: Combination MIC/MBC assay, BIOC76 with fixed gallium citrate. The class given is cell-based, Pseudomonas aeruginosa. The following applies: PAK; alone. The procedure:
Combination MIC/MBC assays are useful when you want to look at only a few concentrations of one compound (Gallium citrate) combined with many concentrations of the second compound (BIOC76).
This method also allows us to see the change in both the MIC and MBC of a drug when in combination with another drug. Checkerboard assays only allow us to see changes in the MIC's.
Test articles are added to a 96-well plate so that when a 2× bacterial culture (prepared to 10^6 CFU/ml) is added, the final concentration in all wells was 1×.
All test articles are prepared at 4×→diluted 1:1 when other TA is added (2×) and diluted 1:1 again to 1× when bacteria are added.
TA #1 (Gallium citrate) is prepared and added to entire rows of a plate at a single concentration.
TA #2 (BIOC76) in then prepared and serially diluted in TA #1, so there are 2-fold dilutions of TA #2 combined with a single concentration of TA #1.
Plates were incubated at 37° C. for 18-24 h.
The ΔMIC/IBC is used to show the change in the MIC/IBC of BIOC76 when in combination with Gallium citrate (compared to when BIOC76 is used alone).
ΔMIC/MBC is the fold-decrease in BIOC76 concentration as a result of the combination.
We concluded BIOC76 and gallium citrate maintain synergistic activity so long as the gallium concentration is at least about 0.005 to about 0.02 mg/ml. In this experimental, we set up MIC/MBC assay and serially diluted BIOC76 in rows with fixed concentrations of gallium citrate. […] The results are shown in FIG. 6, and in the following tables: […]

The conditions of series [7]: N-methyl amine; cited from earlier work.
Series [8] in a line: NO storage and release measurement (chemiluminescence nitric oxide analyzer). The class given is physicochemical. As for the experimental part: N-diazeniumdiolates NO scaffolds are pH-triggered NO-release donors. Reacting with proton in the physiological condition (e.g., 37° C., pH 7.4), 1 mole of N-diazeniumdiolate regenerates 1 mole of the parent secondary amine compounds and two moles of NO radicals. The real-time detection of NO was performed by using a chemiluminescence-based nitric oxide analyzer (NOA). The total NO storage and dissociation kinetics of water-soluble NO Donors were measured in physiological condition (pH 7.40, 37° C.). The resulting NO-release parameters (e.g., total NO storage, half-life of NO release, maximum flux, and conversion efficiency) were evaluated for suitability as a pharmaceutical product.
Transfer the solution into the high-pressure vessel and purge the headspace with nitrogen. Mix the solution and set nitric oxide pressure to 25 bar (temp 20° C.). Allow the reaction to run for minimum of 3 days. Stop the reaction by venting the NO. Precipitate the reaction product in acetone (10:1 acetone:reaction mixture). Filter the precipitate and vacuum dry.
We sought to determine whether an NO donor and gallium nitrate have antimicrobial synergy against a lab strain of P. aeruginosa (PAK). The Checkerboard assay (described herein) was used with a hepta-substituted cyclodextrin-based NO donor (hereinafter referred to as BIOC76) having approximately ˜4.7 μmol NO/mg dry powder.

The mark [9] stands for this setting: PAK (N0049), 3-log reduction in biofilm.

Sequence of angiotensin-converting enzyme 2 (ACE2) (Q9BYF1 18-805): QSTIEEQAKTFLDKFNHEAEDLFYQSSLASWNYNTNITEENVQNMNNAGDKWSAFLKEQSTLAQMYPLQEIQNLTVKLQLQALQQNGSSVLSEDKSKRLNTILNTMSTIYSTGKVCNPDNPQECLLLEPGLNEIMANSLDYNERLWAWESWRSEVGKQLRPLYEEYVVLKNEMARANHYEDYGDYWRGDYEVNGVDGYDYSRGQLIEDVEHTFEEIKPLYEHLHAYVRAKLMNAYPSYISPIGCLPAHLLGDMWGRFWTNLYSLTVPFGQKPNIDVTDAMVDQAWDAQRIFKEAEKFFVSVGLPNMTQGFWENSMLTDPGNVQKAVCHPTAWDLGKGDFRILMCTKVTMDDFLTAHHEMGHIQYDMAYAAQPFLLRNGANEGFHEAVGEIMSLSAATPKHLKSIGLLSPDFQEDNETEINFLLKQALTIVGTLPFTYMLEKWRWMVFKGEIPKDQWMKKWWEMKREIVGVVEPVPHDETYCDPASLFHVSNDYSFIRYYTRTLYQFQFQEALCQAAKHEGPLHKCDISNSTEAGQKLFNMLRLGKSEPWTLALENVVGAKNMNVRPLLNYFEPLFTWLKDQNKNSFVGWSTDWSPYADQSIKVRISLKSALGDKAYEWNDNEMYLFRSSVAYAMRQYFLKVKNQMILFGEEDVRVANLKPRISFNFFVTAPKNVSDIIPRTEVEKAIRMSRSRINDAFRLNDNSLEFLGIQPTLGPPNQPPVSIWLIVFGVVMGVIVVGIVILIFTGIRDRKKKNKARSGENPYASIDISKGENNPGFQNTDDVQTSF

Regarding `O=[N+]([O-])[O-].O=[N+]([O-])[O-].O=[N+]([O-])[O-].[Ga+3]` [Gallium nitrate, gallium nitrate, reference compound], the “MBEC of Gallium nitrate” value in series [1] (setting [9]) was >16 mg/mL. The “effectiveness against P. aeruginosa biofilms” value in series [1] (biofilms grown under aerobic conditions) is “is not”. Also, the “MIC Ga(NO3)3 alone” value in series [2] amounted to 65 µg/mL. Also, the “MIC Ga(NO3)3 combo” value in series [2] (in combination with BIOC76) is 15 µg/mL.
On to `N[C@@H](CCN[C@@H](CCN1CC[C@H]1C(=O)O)C(=O)O)C(=O)O` [Nicotianamine], for which, in series [3], the IC50 is 84 nM.
In the case of `CC(C)C[C@H](NC(=O)[C@@H]1CCCN1N(O)N=O)C(=O)NCC(N)=O` [Entry 49], the “diazeniumdiolate half-life, fold longer than unsubstituted pyrrolidine analog” value in series [4] (vs entry 29) worked out at 140 fold. Besides, the “diazeniumdiolate half-life, fold longer than proline carboxylate analog” value in series [4] (vs entry 30) is recorded as “over 200 fold”.
`O=C([O-])CC(O)(CC(=O)[O-])C(=O)[O-].[Ga+3]` [Gallium citrate, gallium citrate, reference compound]: the “killing of P. aeruginosa strains (conclusion)” value in series [5] (21 P. aeruginosa strains) is recorded as “does not kill any strain of P. aeruginosa”. In addition, in series [5] (21 P. aeruginosa strains), the “mode of activity alone (conclusion)” value was “largely bacteriostatic”. Moreover, the “MBC Rep 1” value in series [5] (strain N0047 (AR-BANK #103)), in series [5] (strain N0048 (ATCC 19143)), in series [5] (strain N0049 (PAK)), in series [5] (strain N0050 (AR-BANK #0095)), in series [5] (strain N0051 (AU32077)) and in series [5] (strain N0053 (AU30524)) was >2000 µg/mL throughout. Besides, the “MBC Rep 1” value in series [5] (strain N0054 (AU26773)), in series [5] (strain N0055 (AU22725)), in series [5] (strain N0056 (AU22505)), in series [5] (strain N0057 (AU35400)), in series [5] (strain N0058 (AU32543)) and in series [5] (strain N0059 (AR-BANK #0054)) was >2000 µg/mL in each case. Besides, the “MBC Rep 1” value in series [5] (strain N0069 (AR-BANK #0090)), in series [5] (strain N0070 (AR-BANK #0092)), in series [5] (strain N0071 (AR-BANK #0100)), in series [5] (strain N0072 (AR-BANK #0105)), in series [5] (strain N0079 (AR-BANK #0108)) and in series [5] (strain N0080 (AR-BANK #0110)) was >2000 µg/mL each time. The “MBC Rep 1” value in series [5] (strain N0081 (AR-BANK #0111)) and in series [5] (strain N0099 (ATCC 29260)) was >2000 µg/mL each time. The “MIC Rep 1” value in series [5] (strain N0047 (AR-BANK #103)) is 250 µg/mL; in series [5] (strain N0048 (ATCC 19143)), 2000 µg/mL; in series [5] (strain N0049 (PAK)), 65 µg/mL; in series [5] (strain N0050 (AR-BANK #0095)), 250 µg/mL; in series [5] (strain N0051 (AU32077)), 250 µg/mL; in series [5] (strain N0052 (AU25834)), >2000 µg/mL. Also, the “MIC Rep 1” value was 250 µg/mL in series [5] (strain N0053 (AU30524)); 125 µg/mL in series [5] (strain N0054 (AU26773)); 62.5 µg/mL in series [5] (strain N0055 (AU22725)); 1000 µg/mL in series [5] (strain N0056 (AU22505)); 65 µg/mL in series [5] (strain N0057 (AU35400)); 500 µg/mL in series [5] (strain N0058 (AU32543)). Besides, the “MIC Rep 1” value in series [5] (strain N0059 (AR-BANK #0054)) came out at 32.5 µg/mL; in series [5] (strain N0069 (AR-BANK #0090)), 125 µg/mL; in series [5] (strain N0070 (AR-BANK #0092)) it was 62.5 µg/mL; in series [5] (strain N0071 (AR-BANK #0100)) it was 125 µg/mL; in series [5] (strain N0072 (AR-BANK #0105)), 500 µg/mL; in series [5] (strain N0079 (AR-BANK #0108)), 125 µg/mL. The “MIC Rep 1” value in series [5] (strain N0080 (AR-BANK #0110)) is 125 µg/mL; in series [5] (strain N0081 (AR-BANK #0111)) it was 250 µg/mL; in series [5] (strain N0099 (ATCC 29260)) it was 125 µg/mL. Further, the “MIC GaCi” value in series [6] came to 65 µg/mL.
Take `O=NN(O)N1C2CCC1c1ccccc12` [Entry 50]: in series [4] (vs entry 23), the “fold more stable than monocyclic dimethyl-substituted pyrrolidine analog” value worked out at 8 fold.
Turning to `NC[C@H]1O[C@H](O[C@H]2[C@H](O)[C@@H](O[C@H]3O[C@H](CO)[C@@H](O)[C@H](N)[C@H]3O)[C@H](N)C[C@@H]2N)[C@H](N)C[C@@H]1O` [Tobra, Tobramycin], the “MBEC of Tobra” value in series [1] (setting [9]) was 8 µg/mL and 4 µg/mL.
As to `C[C@@H]1CCC[C@H](C)N1C` [N-methyl-cis-2,6-dimethylpiperidine], the pKa in series [7] is listed as 9.35.
On to `C[C@@H]1CCC[C@H](C)N1N(O)N=O` [Entry 22, 2,6 cis-dimethylpiperdine-NONOate], for which, in series [4] (vs entry 19), the “rate of NO release, fold slower than unsubstituted piperidine” value was “over 60 fold”. For the same molecule, in series [8], the “Max Flux” value worked out at 4933 ppb/mg and the “NO Total” value is recorded as 3.7 µmol/mg. The half-life in series [8] (physiological condition (pH 7.40, 37° C.), buffer not named, pH 7.4, NO release) is 1.3 h.

The IC50 is the concentration needed to halve the response being measured. Broadly, the pKa is the pH at which an ionisable group is half protonated. By half-life is commonly meant the time needed for the level to fall by half in the phase considered.
